The values below come from patent US6673938B1, “Substituted pyridine herbicides” (Syngenta Participations AG, priority 1998, dated 2004).

Molecules are shown by their SMILES.

This assay relates to Monocotyledonous and dicotyledonous test plants. Description: Post-emergence herbicidal action. In kind it is in vivo. To be noted: evaluated after approximately 18 days; for Post-emergence action, Ipomoea / Post-emergence action, Lolium / Post-emergence action, Setaria / Post-emergence action, Sinapis / Post-emergence action, Solanum / Post-emergence action, Stellaria: 2000 g/ha, sprayed in 4- to 6-leaf stage, nine-step scale; for Post-emergence action: Abutilon (score, nine-step scale) / Post-emergence action: Chenop. (score, nine-step scale) / Post-emergence action: Digitaria (score, nine-step scale) / Post-emergence action: Echino. (score, nine-step scale) / Post-emergence action: Ipopur. (score, nine-step scale) / Post-emergence action: Panicum (score, nine-step scale) / Post-emergence action: Xanth. (score, nine-step scale): 250 g/ha, sprayed at 4- to 6-leaf stage. The procedure: Monocotyledonous and dicotyledonous test plants are grown in the greenhouse in plastic pots containing standard soil, and, in the 4- to 6-leaf stage, sprayed with an aqueous suspension of the test substances of the formula I prepared with a 25% wettable powder (Example F3, b) in accordance with WO 97/34485) or with an emulsion of the test substances of the formula I prepared with a 25% emulsion concentrate (Example F1, c) in accordance with WO 97/34485), corresponding to a rate of 2 kg of a.i./ha or 250 g of a.i./ha (500 l of water/ha). The test plants are subsequently grown on in the greenhouse under optimal conditions. After a test period of approximately 18 days, the test is evaluated with reference to a nine-step scale (1=complete damage, 9=no effect). Score figures of 1 to 4 (in particular 1 to 3) mean a good to very good herbicidal action. In this test, the compounds of the formula I show a potent herbicidal action.

Take `COC(=O)C1(C)C(O)=C(C(=O)c2ccc(C(F)(F)F)nc2C)C(=O)CC1(C)C` (centres unmarked) [Compound A2-B1087]: the “Post-emergence action, Ipomoea” value is 1; the “Post-emergence action, Lolium” value was 4; the “Post-emergence action, Setaria” value is recorded as 3; the “Post-emergence action, Sinapis” value is recorded as 1. Also, the “Post-emergence action, Solanum” value is on record as 2 and the “Post-emergence action, Stellaria” value is listed as 2.
For `CC1=CCCC(O)=C(C(=O)c2ccc(C(F)(F)F)nc2C)C1=O` [Compound A2-F5, 3-Hydroxy-7-methyl-2-(2-methyl-6-trifluoromethyloyridine-3-carbonyl)cyclohepta-2,6-dienone], the “Post-emergence action: Abutilon (score, nine-step scale)” value (from here on “Post-emergence action: Abutilon”) amounted to 3; the “Post-emergence action: Chenop. (score, nine-step scale)” value was found to be 3; the “Post-emergence action: Digitaria (score, nine-step scale)” value (from here on “Post-emergence action: Digitaria”) is 3; the “Post-emergence action: Echino. (score, nine-step scale)” value came to 3. The “Post-emergence action: Ipopur. (score, nine-step scale)” value is on record as 4; the “Post-emergence action: Panicum (score, nine-step scale)” value (shortened to “Post-emergence action: Panicum”) is 3; the “Post-emergence action: Xanth. (score, nine-step scale)” value is reported as 3.
For the compound `COCc1nc(C(F)(F)F)ccc1C(=O)C1=C(O)C(C)C(C)CC1=O` (centres unmarked) [Compound A8-B134], the “Post-emergence action: Abutilon” value is given as 2; the “Post-emergence action: Chenop. (score, nine-step scale)” value worked out at 2; the “Post-emergence action: Digitaria” value is 3; the “Post-emergence action: Echino. (score, nine-step scale)” value was 3. The “Post-emergence action: Ipopur. (score, nine-step scale)” value was 3; the “Post-emergence action: Panicum” value was found to be 3; the “Post-emergence action: Xanth. (score, nine-step scale)” value was 3.
As for `CCCc1nc(C(F)(F)F)ccc1C(=O)C1=C(O)C(C)(C)CCC1=O` [Compound A7-B24], the “Post-emergence action, Ipomoea” value is 1; the “Post-emergence action, Lolium” value is 2; the “Post-emergence action, Setaria” value was determined as 2; the “Post-emergence action, Sinapis” value stood at 1. In addition, the “Post-emergence action, Solanum” value was 2 and the “Post-emergence action, Stellaria” value stood at 2.
As to `COCc1nc(C(F)(F)F)ccc1C(=O)C1=C(O)CC(C)CC1=O` (centres unmarked) [Compound A8-B133], the “Post-emergence action, Ipomoea” value stood at 2; the “Post-emergence action, Lolium” value turned out to be 4; the “Post-emergence action, Setaria” value amounted to 2; the “Post-emergence action, Sinapis” value was determined as 1. Besides, the “Post-emergence action, Solanum” value was determined as 2 and the “Post-emergence action, Stellaria” value is on record as 2.
As for `COC(=O)C1C(O)=C(C(=O)c2ccc(C(F)(F)F)nc2C)C(=O)CC1(C)C` (centres unmarked) [Compound A2-B1094], the “Post-emergence action: Abutilon” value was found to be 3; the “Post-emergence action: Chenop. (score, nine-step scale)” value stood at 2; the “Post-emergence action: Digitaria” value is recorded as 3; the “Post-emergence action: Echino. (score, nine-step scale)” value came to 2. In addition, the “Post-emergence action: Ipopur. (score, nine-step scale)” value was determined as 3; the “Post-emergence action: Panicum” value stood at 2; the “Post-emergence action: Xanth. (score, nine-step scale)” value stood at 3.
For `Cc1nc(C(F)(F)F)ccc1C(=O)C1=C(O)CCC2(CCOC2=O)C1=O` (centres unmarked) [Compound A2-E16], the “Post-emergence action, Ipomoea” value is listed as 2; the “Post-emergence action, Lolium” value came to 3; the “Post-emergence action, Setaria” value was found to be 2; the “Post-emergence action, Sinapis” value was 2. For the same compound, the “Post-emergence action, Solanum” value was determined as 2 and the “Post-emergence action, Stellaria” value came out at 2.
In the case of `Cc1nc(C(F)(F)F)ccc1C(=O)C1=C(O)CC(c2ccccc2)CC1=O` (centres unmarked) [Compound A2-B1058], the “Post-emergence action, Ipomoea” value is listed as 1; the “Post-emergence action, Lolium” value is on record as 2; the “Post-emergence action, Setaria” value worked out at 4; the “Post-emergence action, Sinapis” value came to 1. Moreover, the “Post-emergence action, Solanum” value is given as 2 and the “Post-emergence action, Stellaria” value amounted to 2.
For `CCC1(CC)CC(C)C(=O)C(C(=O)c2ccc(C(F)(F)F)nc2C)=C1O` (centres unmarked) [Compound A2-B1093], the “Post-emergence action, Ipomoea” value came out at 2; the “Post-emergence action, Lolium” value came out at 2; the “Post-emergence action, Setaria” value is recorded as 2; the “Post-emergence action, Sinapis” value amounted to 1. For the same compound, the “Post-emergence action, Solanum” value came out at 2 and the “Post-emergence action, Stellaria” value is 2.
As for `Cc1c(C(=O)C2=C(O)CCCC2=O)ccc(C(F)(F)F)[n+]1[O-]` [Compound A1210-B1, 3-Hydroxy-2-(2-methyl-1-oxy-6-trifluoromethylpyridine-3-carbonyl)cyclohex-2-enone], the “Post-emergence action: Abutilon” value turned out to be 2; the “Post-emergence action: Chenop. (score, nine-step scale)” value worked out at 1; the “Post-emergence action: Digitaria” value is on record as 2; the “Post-emergence action: Echino. (score, nine-step scale)” value was 2. The “Post-emergence action: Ipopur. (score, nine-step scale)” value worked out at 2; the “Post-emergence action: Panicum” value came to 2; the “Post-emergence action: Xanth. (score, nine-step scale)” value was 2.
Turning to `Cc1nc(C(F)(F)F)ccc1C(=O)C1=C(O)C2CC2C(C)([S+](C)[O-])C1=O` (centres unmarked) [Compound A2-D114, 5-Hydroxy-2-methanesulfinyl-2-methyl-4-(2-methyl-6-trifluoromethylpyridine-3-carbonyl)bicyclo[4.1.0]hept-4-en-3-one], the “Post-emergence action, Ipomoea” value is 2; the “Post-emergence action, Lolium” value is recorded as 1; the “Post-emergence action, Setaria” value is 1; the “Post-emergence action, Sinapis” value was 1. For the same compound, the “Post-emergence action, Solanum” value is given as 1 and the “Post-emergence action, Stellaria” value came to 1.
Consider `CCC1(CC)CCC(=O)C(C(=O)c2ccc(C(F)(F)F)nc2C)=C1O` [Compound A2-B112], for which the “Post-emergence action, Ipomoea” value is recorded as 2; the “Post-emergence action, Lolium” value is on record as 3; the “Post-emergence action, Setaria” value is reported as 2; the “Post-emergence action, Sinapis” value stood at 1. The “Post-emergence action, Solanum” value turned out to be 2 and the “Post-emergence action, Stellaria” value stood at 2.
Turning to `Cc1nc(C(F)(F)C(F)(F)F)ccc1C(=O)C1=C(O)C(C)(C)CCC1=O` [Compound A34-B24], the “Post-emergence action, Ipomoea” value is recorded as 1; the “Post-emergence action, Lolium” value turned out to be 2; the “Post-emergence action, Setaria” value was 2; the “Post-emergence action, Sinapis” value came out at 1. The “Post-emergence action, Solanum” value came out at 2 and the “Post-emergence action, Stellaria” value stood at 2.
As to `CCN(CC)CC.Cc1nc(C(F)(F)F)ccc1C(=O)C1=C(O)CC(C)CC1=O` (centres unmarked) [Compound A2-B1101], the “Post-emergence action, Ipomoea” value amounted to 2; the “Post-emergence action, Lolium” value was 2; the “Post-emergence action, Setaria” value came to 2; the “Post-emergence action, Sinapis” value came to 1. Also, the “Post-emergence action, Solanum” value came to 1 and the “Post-emergence action, Stellaria” value was 3.
In the case of `CSC1(C)CCC(=O)C(C(=O)c2ccc(C(F)(F)F)nc2C)=C1O` (centres unmarked) [Compound A2-B29], the “Post-emergence action, Ipomoea” value amounted to 2; the “Post-emergence action, Lolium” value is given as 3; the “Post-emergence action, Setaria” value is 2; the “Post-emergence action, Sinapis” value is reported as 1. In addition, the “Post-emergence action, Solanum” value is listed as 2 and the “Post-emergence action, Stellaria” value is 2.
As for `CCCC1(C)CC(C)C(=O)C(C(=O)c2ccc(C(F)(F)F)nc2C)=C1O` (centres unmarked) [Compound A2-B70], the “Post-emergence action, Ipomoea” value came to 3; the “Post-emergence action, Lolium” value is 4; the “Post-emergence action, Setaria” value is 3; the “Post-emergence action, Sinapis” value is on record as 1. The “Post-emergence action, Solanum” value worked out at 2 and the “Post-emergence action, Stellaria” value is 2.
Regarding `Cc1nc(C(F)(F)F)ccc1C(=O)C1=C(O)C(C(C)C)CCC1=O` (centres unmarked) [Compound A2-B5], the “Post-emergence action, Ipomoea” value is listed as 1; the “Post-emergence action, Lolium” value is reported as 2; the “Post-emergence action, Setaria” value came to 2; the “Post-emergence action, Sinapis” value is reported as 1. Also, the “Post-emergence action, Solanum” value came out at 2 and the “Post-emergence action, Stellaria” value came to 2.
With `CCSC1(CC)CC(C)C(=O)C(C(=O)c2ccc(C(F)(F)F)nc2C)=C1O` (centres unmarked) [Compound A2-B1091], the “Post-emergence action: Abutilon” value is on record as 3; the “Post-emergence action: Chenop. (score, nine-step scale)” value is given as 3; the “Post-emergence action: Digitaria” value was 4; the “Post-emergence action: Echino. (score, nine-step scale)” value is 2. Also, the “Post-emergence action: Ipopur. (score, nine-step scale)” value stood at 3; the “Post-emergence action: Panicum” value amounted to 4; the “Post-emergence action: Xanth. (score, nine-step scale)” value is 4.
With `Cc1cc(C(F)(F)F)ncc1C(=O)C1=C(O)C(C)(C)CCC1=O` [Compound A531-B24], the “Post-emergence action, Ipomoea” value is given as 2; the “Post-emergence action, Lolium” value came out at 2; the “Post-emergence action, Setaria” value was found to be 2; the “Post-emergence action, Sinapis” value is reported as 1. In addition, the “Post-emergence action, Solanum” value turned out to be 2 and the “Post-emergence action, Stellaria” value is listed as 2.
